In patent US20240120053A1, “5-HT RECEPTOR AGONIST TITRATION” (Diamond Therapeutics Inc., priority 2021, published 2024):
Entries after “also recorded” stand apart in the source; their conditions may differ.

Legend:
[1] = system: mice; test: Mismatch Negativity (MMN) EEG test, ascending dose protocol; format: in vivo; details: ascending low, medium, high dose, frontal cortex EEG recording (FIG. 6A, 6B)
Description: (§1) Fourteen mice with a history of testing with scopolamine and memantine, containing implanted with a frontal screw for MMN measurement (in mm: AP 1.5; ML 0.5) and an auditory screw for ASSR measurement (in mm: AP −2.8; ML 4.2), are administered an ascending dose of psilocybin. As the mice have been tested with the MMN-ASSR protocol, they are not further habituated prior to psilocybin testing. The ascending dose protocol is summarized below and in FIG. 1: • Week 1: Day 1: Saline, Day 2: Vehicle • Week 2: Day 1:Saline, Day 2: Low Dose • Week 3: Day 1: Saline, Day 2: Medium Dose • Week 4: Day 1: Saline, Day 2: High Dose
Each animal is administered the same compound and dose each day (e.g., saline on day 1, vehicle or compound on day 2). […]
(§2) The ongoing behavior (e.g., speed, total number of grooming bouts, elongation factor, distance traveled, head bobbing, etc.) of each mouse is assessed over each daily recording session (e.g., see FIG. 3). […] The amplitude of the standard and deviant waveforms are also calculated. […] The ASSR is recorded as the average amplitude of both Evoked Power and Phase Locking Factor at each frequency (20 Hz, 30 Hz, 40 Hz, and 8 Hz) for control (saline) and compound (psilocybin). The difference between the control and compound recording for Evoked Power (e.g., see FIG. 4A and FIG. 4B) and Phase Locking Factor (e.g., see FIG. 5A and FIG. 5B) is determined. […]

[2] = system: mice; test: Ongoing spectral power (qEEG, power spectral density) over daily recording sessions; format: in vivo; details: ascending low, medium, high dose (FIG. 7A-8B)
Description: as §1
In particular, on Day 1, animals are subcutaneously administered saline at t=−15 minutes prior to recording start. […]
as §2

[3] = system: out-bred Long Evans rats; test: Progressive ratio (PR) test of motivation; format: in vivo
Description: (§3) Experiments were conducted to test psilocybin doses in the range of 0.05-0.2 mg/kg psilocybin administered S.C. across progressive ratio (PR) and 5-choice serial reaction time task (5CSRTT) to examine the effect of psilocybin on endophenotypes of motivation and attention. In each study, a population of out-bred Long Evans rats was first tested as a group for response to the PR and 5CSRTT. Each group was then divided into sub-groups by tertiles according to performance, and then exposed to various dose levels immediately prior to re-testing at various psilocybin dose levels.
The PR test is used to answer how willing the test subject is to work for food (i.e. test of motivation). A single 45 mg food pellet (i.e. reinforcer) is made available to the test animal based on lever press response. To obtain each successive pellet, the animal must make increasingly more lever presses. Typically, a progression of 2, 4, 6, 9, 12, 15, 20, 25, 32, 40, 50, 62, 77, 95, 118, etc. is used, derived from the equation:
ratio=[5×e^(0.2×reinforcer#)−5]
At some point, the animal gives up as the motor demands to obtain a single pellet are not deemed worthwhile (i.e. animal reaches“break point” defined as animal's failure to earn a food pellet in 20 minutes).
Rats were then sub-grouped into tertiles based on the number of lever presses for food at baseline, so that within the test population of 36 animals, 12 animals were identified as low responders, characterized by low motivation and potentially corresponding to low motivation endophenotype representative of clinical depression. Twelve animals were identified as high responders. There was a statistically significant difference between the high and low responders. […] This represents a motivational enhancing effect of psilocybin in the cohort corresponding to a low motivation endophenotype representative of clinical depression.

[4] = system: out-bred Long Evans rats; test: 5-choice serial reaction time task (5CSRTT), standard conditions, 5 s ITI; format: in vivo
Description: as §3
(§4) The 5CSRTT involves evaluating test subject response to a brief visual stimulus (Higgins, Guy & Silenieks, Leonardo. (2017). Rodent Test of Attention and Impulsivity: The 5-Choice Serial Reaction Time Task: The 5-Choice Serial Reaction Time Task. 10.1002/cpph.27). Animals are trained to make a nose-poke response to a stimulus location in order to collect a food reward. The task allows the experimenter to measure animal performance in multiple domains including: • Attention • Impulsivity • Perseveration • Speed of response
(§5) A strength of the test is its flexible configuration to challenge test subjects: • Standard test conditions (0.75s stimulus duration (SD), 5s inter-trial interval (ITI), 100 trials) • Multiple short stimulus duration (mSD) (0.03-1s SD) • Fixed long ITI (5 s vs. 10 s ITI) • Multiple ultrashort ITI (2-5s ITI) • Extended 250 trials
Asterisk (*) indicates statistical significance vs. vehicle. (FIG. 23A).
When this population is segmented into tertiles according to performance based on accuracy (% correct, calculated as #correct/(#correct+#incorrect)*100), the lowest performing tertile (N=8) are considered to be low attentive and potentially representative of a low attentive endophenotype of depression (FIG. 26A). Low attentive rats also score poorly on % hit (FIG. 26B) and have a slower response speed (FIG. 26D). […] Asterisk (*) indicates statistical significance vs. vehicle. […] Using a longer duration between stimulus and reward, the 5CSRTT study measures premature (PREM) and perseverant (PSV) responses. PREM/PSV responses were increased by increasing the ITI from 5s (baseline) to 10s (test condition). […] Both PREM and PSV behaviors are examples of executive cognitive function, likely involving areas of the prefrontal cortex, a brain region rich in 5-HT2A receptors.

[5] = system: out-bred Long Evans rats; test: 5CSRTT with long 10 s ITI, premature (PREM) and perseverative (PSV) responses; format: in vivo; details: 24 rats, 0.05 mg/kg S.C., p=0.05, t-test
Description: as §4, §5
When this population is segmented into tertiles according to performance based on accuracy (% correct, calculated as #correct/(#correct+#incorrect)*100), the lowest performing tertile (N=8) are considered to be low attentive and potentially representative of a low attentive endophenotype of depression (FIG. 26A). Low attentive rats also score poorly on % hit (FIG. 26B) and have a slower response speed (FIG. 26D). […] Asterisk (*) indicates statistical significance vs. vehicle. […]

[6] = Blood plasma levels of psilocin over time in rats dosed with psilocybin; format: in vivo; details: psilocybin 0.05 mg/kg, after 30 mins
[7] = cited from earlier work
[8] = 24 rats, standard conditions, 5 s ITI

CN(C)CCc1c[nH]c2cccc(OP(=O)(O)O)c12 [psilocybin, 4-phosphoryloxy-N,N-dimethyltryptamine]
MMN: difference between the standard tone waveform and the deviant tone waveform [1]: larger difference between the standard tone waveform and the deviant form waveform with higher doses
general brain activity (ongoing spectral power, average PSD) [2]: higher dose corresponds with a decrease in general brain activity
number of lever presses or break points (rewards earned) ([3]; entire study population of 36 rats, 0.05, 0.1 and 0.2 mg/kg S.C.): None of these doses were observed to cause obvious changes
response in PR test ([3]; high responder subgroup (12 rats), 0.05-0.2 mg/kg S.C.): no effect on response
food responding (lever presses, break point) in PR test ([3]; low responder subgroup (12 rats), 0.05 mg/kg S.C., 0.05 mg/kg): an increase in food responding; also recorded: Significant improvements
food responding in PR test ([3]; low responder subgroup (12 rats), 0.1 mg/kg S.C.): did not produce an increase in food responding
pro-cognitive effect measured as % hit ([4]; 24 rats, 0.05 mg/kg S.C., 75s SD, 5S ITI, 100 trials, vs. vehicle): increased (p=0.05, t-test) pro-cognitive effect
procognitive effect measured as % correct ([4]; 24 rats, 0.05 mg/kg S.C., standard conditions, 5 s ITI): slight non-significant increase
performance: response speed, number of trials completed [4, 8]: no effect on response speed, or number of trials completed
premature or perseverative responses [4, 8]: no effect on premature or perseverative responses
detrimental effects on performance (motivation, motor control, attention, response speed) ([4]; PR and 5CSRTT studies together, 0.05-0.2 mg/kg (PR), 0.05-0.1 mg/kg S.C. (5CSRTT)): no detrimental effects
response speed ([4]; low attentive cohort, 0.05 mg/kg, vs. vehicle, 0.05 mg/kg): increased response speed; also recorded: Significant improvements
effect on accuracy (% correct and % hit) ([4]; low attentive subgroup (lowest tertile, N=8), 0.05 and 0.1 mg/kg, vs. vehicle): strongly evident; also recorded: Significant improvements
PREM and PSV responses [5]: increase
Cmax psilocin [6]: 6+2 ng/ml
doses at which about half of the subjects experience some negative emotions or acute psychological distress ([7]; human subjects): ≥ 30 mg
doses at which the majority of side effects reported in the literature have occurred ([7]; human subjects, equals 0.30-0.45 mg/kg): 20 to 30 mg
threshold dose where mild hallucinogenic activity begins to occur in about half of the subjects ([7]; human subjects, reported in the literature): 10 mg
onset of physical symptoms (dizziness, nausea, vomiting, headaches, increased pulse and blood pressure etc.) ([7]; people, after taking the drug): 20 to 30 min
duration of physical symptoms (dizziness, nausea, vomiting, headaches, increased pulse and blood pressure etc.) ([7]; people): up to 6 hours
duration of psychedelic symptoms (distorted perception, mood changes) ([7]; people, higher doses, most find symptoms gone by 6 hours after ingestion): up to 12 hours
